Source: patent US20240116985A1, “STAPLED PEPTIDES AND METHODS THEREOF” (priority 2020, published 2024)
Values after ≈ are worked out from the molar mass of the structure shown. Where two headings read alike, the source gives them in different places.

Assays:
Solubility in PBS = format: physicochemical
How it was run: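 PBS sample ultracentrifuged; supernatant run on HPLC vs. 50 μM peptide in DMSO standard. Solubility = (PBS peak area / DMSO peak area) × 50 uM.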

[1] = molecular target: T1, full-length beta-Catenin (Uniprot ID P35222) (Homo sapiens, UniProt P35222); assay: Fluorescence polarization IC50 (beta-catenin / 5FAM-TCF4 10-53 competition); format: binding
T1 construct: 10 nM full-length beta-Catenin (Uniprot ID P35222)
T1 sequence (P35222 1-781): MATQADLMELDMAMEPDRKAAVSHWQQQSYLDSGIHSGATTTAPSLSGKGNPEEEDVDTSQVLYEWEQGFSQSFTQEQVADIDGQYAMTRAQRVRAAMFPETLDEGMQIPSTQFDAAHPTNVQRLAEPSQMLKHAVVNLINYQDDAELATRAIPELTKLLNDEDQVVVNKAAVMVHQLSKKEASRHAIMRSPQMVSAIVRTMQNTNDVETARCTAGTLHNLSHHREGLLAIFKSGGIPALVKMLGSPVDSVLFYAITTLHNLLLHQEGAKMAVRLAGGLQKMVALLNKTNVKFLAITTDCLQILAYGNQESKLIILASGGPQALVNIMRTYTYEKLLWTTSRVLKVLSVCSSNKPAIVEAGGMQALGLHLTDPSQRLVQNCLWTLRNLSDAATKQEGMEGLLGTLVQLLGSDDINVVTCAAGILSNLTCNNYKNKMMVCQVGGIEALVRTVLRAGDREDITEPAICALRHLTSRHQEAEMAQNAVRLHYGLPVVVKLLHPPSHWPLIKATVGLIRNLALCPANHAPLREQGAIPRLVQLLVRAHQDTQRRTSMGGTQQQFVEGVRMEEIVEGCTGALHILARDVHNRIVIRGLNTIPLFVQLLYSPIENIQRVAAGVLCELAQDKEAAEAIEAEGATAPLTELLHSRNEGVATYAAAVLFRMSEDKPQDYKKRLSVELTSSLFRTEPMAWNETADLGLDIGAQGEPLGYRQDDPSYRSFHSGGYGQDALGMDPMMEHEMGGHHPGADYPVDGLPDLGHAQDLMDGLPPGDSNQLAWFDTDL

[2] = fluorescence polarization, read-out: beta-Catenin FP IC50

SMILES | Solubility (Solubility in PBS; Solubility (uM)) | IC50 [1, 2] | Solubility (Solubility in PBS) | IC50 ([1]; beta-Catenin FP IC50, fluorescence polarization)
CC(=O)N1CCC[C@]12CC=CCCCC1(CCCC=CCCCOC(=O)N3CC[C@@](C(=O)N[C@@H](Cc4ccccc4Cl)C(=O)N[C@@H](Cc4csc5ccccc45)C(=O)N[C@H](C(N)=O)[C@@H](C)O)(C3)NC(=O)[C@H](CO)NC(=O)[C@H](Cc3ccccc3)NC(=O)[C@H](C)NC(=O)[C@H](C)NC(=O)[C@H](CC(=O)O)NC(=O)[C@H](CC(=O)O)NC1=O)NC(=O)[C@H](CC1CCCCC1)NC(=O)[C@H](CC(=O)O)NC2=O (stereo partly drawn) [I-1135, Ac-PL3-Asp-Cha-B5-Asp-Asp-Ala-Ala-Phe-Ser-PyrS2-2C1F-BztA-Thr-NH2] | 39 µM (≈ 74.8 µg/mL) | 20 nM |  | 
CC(=O)N1CCC[C@]12CC=CCCCC1(CCCC=CCCCOC(=O)N3CC[C@@](C(=O)N[C@@H](Cc4ccccc4Cl)C(=O)N[C@@H](Cc4csc5ccccc45)C(=O)N[C@@H](CC(C)C)C(N)=O)(C3)NC(=O)[C@H](CO)NC(=O)[C@H](Cc3ccccc3)NC(=O)[C@H](C)NC(=O)[C@H](C)NC(=O)[C@H](CC(=O)O)NC(=O)[C@H](CC(=O)O)NC1=O)NC(=O)[C@H](Cc1ccccc1)NC(=O)[C@H](CC(=O)O)NC2=O (stereo partly drawn) [I-1144, Ac-PL3-Asp-Phe-B5-Asp-Asp-Ala-Ala-Phe-Ser-PyrS2-2C1F-BztA-Leu-NH2] | 32 µM (≈ 61.6 µg/mL) | 28 nM |  | 
CC(=O)N1CCC[C@]12CC=CCCCC1(CCCC=CCCCOC(=O)N3CC[C@@](C(=O)N[C@@H](Cc4ccccc4Cl)C(=O)N[C@@H](Cc4csc5ccccc45)C(=O)N[C@@H](CCC(N)=O)C(N)=O)(C3)NC(=O)[C@H](CO)NC(=O)[C@H](Cc3ccccc3)NC(=O)[C@H](CC(C)C)NC(=O)[C@H](CC(C)C)NC(=O)[C@H](CC(=O)O)NC(=O)[C@H](CC(=O)O)NC1=O)NC(=O)[C@H](CC1CCCCC1)NC(=O)[C@H](CC(=O)O)NC2=O (stereo partly drawn) [I-1149, Ac-PL3-Asp-Cha-B5-Asp-Asp-Leu-Leu-Phe-Ser-PyrS2-2C1F-BztA-Gln-NH2] |  | 70 nM | 10 µM (≈ 20.3 µg/mL) | 
CC(=O)N1CCC[C@]12CC=CCCCC1(CCCC=CCCCOC(=O)N3CC[C@@](C(=O)N[C@@H](Cc4ccccc4Cl)C(=O)N[C@@H](Cc4csc5ccccc45)C(=O)N[C@@H](CO)C(N)=O)(C3)NC(=O)[C@H]([C@@H](C)O)NC(=O)[C@H](Cc3ccccc3)NC(=O)[C@H](C)NC(=O)[C@H](CC(C)C)NC(=O)[C@H](CC(=O)O)NC(=O)[C@H](CC(=O)O)NC1=O)NC(=O)[C@H](Cc1ccccc1)NC(=O)[C@H](CC(=O)O)NC2=O (stereo partly drawn) [I-1156, Ac-PL3-Asp-Phe-B5-Asp-Asp-Leu-Ala-Phe-Thr-PyrS2-2C1F-BztA-Ser-NH2] | 48 µM (≈ 93.8 µg/mL) | 14 nM |  | 
CC(=O)N1CCC[C@]12CC=CCCCC1(CCCC=CCCCOC(=O)N3CC[C@@](C(=O)N[C@@H](Cc4ccccc4Cl)C(=O)N[C@@H](Cc4csc5ccccc45)C(=O)N[C@@H](CO)C(N)=O)(C3)NC(=O)[C@H]([C@@H](C)O)NC(=O)[C@H](Cc3ccccc3)NC(=O)[C@H](CC(C)C)NC(=O)[C@H](CC(C)C)NC(=O)[C@H](CC(=O)O)NC(=O)[C@H](CC(=O)O)NC1=O)NC(=O)[C@H](Cc1ccccc1)NC(=O)[C@H](CC(=O)O)NC2=O (stereo partly drawn) [I-1158, Ac-PL3-Asp-Phe-B5-Asp-Asp-Leu-Leu-Phe-Thr-PyrS2-2C1F-BztA-Ser-NH2] |  |  | 29 µM (≈ 57.9 µg/mL) | 168 nM
CCN(CC)C(=O)[C@H](CCC(N)=O)NC(=O)[C@H](Cc1csc2ccccc12)NC(=O)[C@H](Cc1ccsc1)NC(=O)[C@]12CCN(C1)C(=O)OCCCC=CCCCC1(CCCC=CC[C@]3(CCCN3C(C)=O)C(=O)N[C@@H](CC(=O)O)C(=O)N[C@@H](CC(C)(C)C)C(=O)N1)C(=O)N[C@@H](CC(=O)O)C(=O)N[C@@H](CC(=O)O)C(=O)N[C@@H](C)C(=O)N[C@@H](C)C(=O)N[C@@H](Cc1ccccc1)C(=O)N[C@@H](CC(N)=O)C(=O)N2 (stereo partly drawn) [I-1373, PL3-Asp-Npg-B5-Asp-Asp-Ala-Ala-Phe-Asn-PyrS2-3Thi-BztA-Gln-NEt2] |  |  | 50 µM (≈ 98.7 µg/mL) | 
CC(=O)N1CCC[C@]12CC=CCCCC1(CCCC=CCCCOC(=O)N3CC[C@@](C(=O)N[C@@H](Cc4ccsc4)C(=O)N[C@@H](Cc4csc5ccccc45)C(=O)N[C@@H](CCC(N)=O)C(=O)NC4CCCCC4)(C3)NC(=O)[C@H](CC(N)=O)NC(=O)[C@H](Cc3ccccc3)NC(=O)[C@H](C)NC(=O)[C@H](C)NC(=O)[C@H](CC(=O)O)NC(=O)[C@H](CC(=O)O)NC1=O)NC(=O)[C@H](CC(C)(C)C)NC(=O)[C@H](CC(=O)O)NC2=O (stereo partly drawn) [I-1374, PL3-Asp-Npg-B5-Asp-Asp-Ala-Ala-Phe-Asn-PyrS2-3Thi-BztA-Gln-NHCyHe] |  |  | 10 µM (≈ 20 µg/mL) | 
CC(=O)N1CCC[C@]12CC=CCCCC1(CCCC=CCCCOC(=O)N3CC[C@@](C(=O)N[C@@H](Cc4ccsc4)C(=O)N[C@@H](Cc4csc5ccccc45)C(=O)N[C@@H](CCC(N)=O)C(=O)NC4CC4)(C3)NC(=O)[C@H](CC(N)=O)NC(=O)[C@H](Cc3ccccc3)NC(=O)[C@H](C)NC(=O)[C@H](C)NC(=O)[C@H](CC(=O)O)NC(=O)[C@H](CC(=O)O)NC1=O)NC(=O)[C@H](CC(C)(C)C)NC(=O)[C@H](CC(=O)O)NC2=O (stereo partly drawn) [I-1375, PL3-Asp-Npg-B5-Asp-Asp-Ala-Ala-Phe-Asn-PyrS2-3Thi-BztA-Gln-NHCyPr] |  |  | 50 µM (≈ 97.9 µg/mL) | 

The next lines start with results.

Solubility (Solubility in PBS; Solubility (uM)) | IC50 [1, 2] | Solubility (Solubility in PBS) | SMILES | IC50 ([1]; beta-Catenin FP IC50, fluorescence polarization)
 | 159 nM | 10 µM (≈ 19.3 µg/mL) | CC(=O)N1CCC[C@]12CC=CCCCC1(CCCC=CCCCOC(=O)N3CC[C@@](C(=O)N[C@@H](Cc4ccccc4Cl)C(=O)N[C@@H](Cc4csc5ccccc45)C(=O)N[C@@H](CCC(N)=O)C(N)=O)(C3)NC(=O)[C@H](CC(C)C)NC(=O)[C@H](Cc3ccccc3)NC(=O)[C@H](C)NC(=O)[C@H](C)NC(=O)[C@H]([C@@H](C)O)NC(=O)[C@H](CC(=O)O)NC1=O)NC(=O)[C@H](CC(C)(C)C)NC(=O)[C@H](CC(=O)O)NC2=O (stereo partly drawn) [I-1169, Ac-PL3-Asp-Npg-B5-Asp-Thr-Ala-Ala-Phe-Leu-PyrS2-2C1F-BztA-Gln-NH2] | 
 | 43 nM | 10 µM (≈ 19.3 µg/mL) | CC(=O)N1CCC[C@]12CC=CCCCC1(CCCC=CCCCOC(=O)N3CC[C@@](C(=O)N[C@@H](Cc4ccsc4)C(=O)N[C@@H](Cc4csc5ccccc45)C(=O)N[C@@H](CCC(N)=O)C(N)=O)(C3)NC(=O)[C@H](CC(C)C)NC(=O)[C@H](Cc3ccccc3)NC(=O)[C@H](C)NC(=O)[C@H](C)NC(=O)[C@H]([C@@H](C)O)NC(=O)[C@H](CC(=O)O)NC1=O)NC(=O)[C@H](CC1CCCCC1)NC(=O)[C@H](CC(=O)O)NC2=O (stereo partly drawn) [I-1174, Ac-PL3-Asp-Cha-B5-Asp-Thr-Ala-Ala-Phe-Leu-PyrS2-3Thi-BztA-Gln-NH2] | 
 | 169 nM | 10 µM (≈ 19.6 µg/mL) | CC(=O)N1CCC[C@]12CC=CCCCC1(CCCC=CCCCOC(=O)N3CC[C@@](C(=O)N[C@@H](Cc4ccccc4Cl)C(=O)N[C@@H](Cc4csc5ccccc45)C(=O)N[C@@H](CCC(N)=O)C(N)=O)(C3)NC(=O)[C@H](CC(C)C)NC(=O)[C@H](Cc3ccccc3)NC(=O)[C@H](C)NC(=O)[C@H](C)NC(=O)[C@H]([C@@H](C)O)NC(=O)[C@H](CC(=O)O)NC1=O)NC(=O)[C@H](CC1CCCCC1)NC(=O)[C@H](CC(=O)O)NC2=O (stereo partly drawn) [I-1176, Ac-PL3-Asp-Cha-B5-Asp-Thr-Ala-Ala-Phe-Leu-PyrS2-2C1F-BztA-Gln-NH2] | 
 |  | 10 µM (≈ 19.7 µg/mL) | CC(=O)N1CCC[C@]12CC=CCCCC1(CCCC=CCCCOC(=O)N3CC[C@@](C(=O)N[C@@H](Cc4ccccc4)C(=O)N[C@@H](Cc4csc5ccccc45)C(=O)N[C@@H](CCC(N)=O)C(N)=O)(C3)NC(=O)[C@H](CC(C)C)NC(=O)[C@H](Cc3ccccc3)NC(=O)[C@H](C)NC(=O)[C@H](CCCCNC(C)C)NC(=O)[C@H](CCCCN)NC(=O)[C@H](CC(N)=O)NC1=O)NC(=O)[C@H](C)NC(=O)[C@H](CC(=O)O)NC2=O (stereo partly drawn) [I-1380, Ac-PL3-Asp-Ala-B5-Asn-Lys-iPrLys-Ala-Phe-Leu-PyrS2-Phe-BztA-Gln-NH2] | 
 |  | 10 µM (≈ 19.3 µg/mL) | CC(=O)N1CCC[C@]12CC=CCCCC1(CCCC=CCCCOC(=O)N3CC[C@@](C(=O)N[C@@H](Cc4ccccc4)C(=O)N[C@@H](Cc4ccc5ccccc5c4)C(=O)N[C@@H](CCC(N)=O)C(N)=O)(C3)NC(=O)[C@H](CC(C)C)NC(=O)[C@H](Cc3ccccc3)NC(=O)[C@H](C)NC(=O)[C@H](CCCCNC(C)C)NC(=O)[C@H]([C@@H](C)O)NC(=O)[C@H](CC(N)=O)NC1=O)NC(=O)[C@H](C)NC(=O)[C@H](CC(=O)O)NC2=O (stereo partly drawn) [I-1381, Ac-PL3-Asp-Ala-B5-Asn-Thr-iPrLys-Ala-Phe-Leu-PyrS2-Phe-2NapA-Gln-NH2] | 
 |  | 10 µM (≈ 19.1 µg/mL) | CC(=O)N1CCC[C@]12CC=CCCCC1(CCCC=CCCCOC(=O)N3CC[C@@](C(=O)N[C@@H](Cc4ccccc4)C(=O)N[C@@H](Cc4csc5ccccc45)C(=O)N[C@H](C(N)=O)[C@@H](C)O)(C3)NC(=O)[C@H](CC(C)C)NC(=O)[C@H](Cc3ccccc3)NC(=O)[C@H](C)NC(=O)[C@H](CCCCNC(C)C)NC(=O)[C@H]([C@@H](C)O)NC(=O)[C@H](CC(=O)O)NC1=O)NC(=O)[C@H](C)NC(=O)[C@H](CC(N)=O)NC2=O (stereo partly drawn) [I-1384, Ac-PL3-Asn-Ala-B5-Asp-Thr-iPrLys-Ala-Phe-Leu-PyrS2-Phe-BztA-Thr-NH2] | 
